Measured values: US20220296625A1 (priority 2019, published 2022)
Read-outs that look alike come from different tables or passages of the source.

Experiments:
[1] = tested on: male C57BL mice; assay: Survival of mice after streptozotocin i.p. with or without oral LPSp (Example 1); type: in vivo; details: STZ 250 mg/kg i.p.; for Survival rate (%): LPSp 100 μg/kg body weight/day in drinking water
Method: 1) Reagents • LPS (LPSp) derived from Pantoea agglomerans belonging to genus Pantoea of family Enterobacteriaceae (mac0001 of Macrophi Inc.) • Streptozotocin (STZ) (SAJ-S0130 of Sigma-Aldrich)
(§1) Six-week-old male C57BL mice were used. […] As food, the D12450B diet of Research Diets, Inc. was provided.
PBS administration group (PBS i.p.): 0.5 mL of phosphate buffer saline (PBS) were injected into the peritoneal cavity of each mouse.

[2] = tested on: male C57BL mice; assay: Survival of mice after streptozotocin i.p. with or without oral LPSea (Example 5); type: in vivo; details: STZ 313 mg/kg i.p.; for Survival rate (%): LPSea 1 mg/kg body weight/day in drinking water
Source text: 1) Reagents • LPS (LPSea) derived from Enterobacter asburiae belonging to genus Enterobacter of family Enterobacteriaceae (Macrophi Inc.) • Streptozotocin (STZ) (SAJ-S0130 of Sigma-Aldrich)
as §1

[3] = type: in vivo, mice; details: for Mice body weights after anticancer agent administration (relative value in % with body weights for saline i.p. being 100): LPSp 1 mg/kg body weight/day in drinking water
Source text: (§2) Four-week-old male ICR mice were used.

[4] = tested on: male ICR mice; assay: Survival of mice after cisplatin i.p. with or without oral LPSp (Example 2); type: in vivo; details: cisplatin 17.4 mg/kg i.p.; for Survival rate (%): LPSp 1 mg/kg body weight/day in drinking water
Source text: as §2

[5] = Body weight of mice after cyclophosphamide i.p. with or without oral LPSp (Example 3); details: 11th day and 13th day from administration; Tukey's multiple comparison test
Method: Four-week-old male ICR mice were used. Husbandry of the mice was carried out in a temperature and humidity controlled animal facility under environmental conditions of ad libitum food and water, and 12 hr light/12 hr dark. As food, CE-12 of CLEA Japan, Inc. was provided. After measuring the body weights at the time of delivery, the mice were divided into 3 groups of 6 mice each.
Physiological saline administration group (saline i.p.): 0.5 mL of physiological saline were injected into the peritoneal cavity of each mouse.

CN(N=O)C(=O)N[C@H]1C(O)O[C@H](CO)[C@@H](O)[C@@H]1O (mixture of isomers) [STZ i.p., Streptozotocin]
mice died ([1]; 5th day): 6 out of 6
Survival rate (%) ([1]; day 3, 6 mice per group): 66.7%
Survival rate (%) ([1]; day 4): 33.3%
Survival rate (%) ([1]; day 4.5): 33.3%
Survival rate (%) ([1]; day 5): 0.0%
Survival rate (%) ([1]; day 9): 0.0%
Survival rate (%) ([1]; day 11): 0.0%
Survival rate (%) ([1]; day 21): 0.0%
Survival rate (%) ([1]; day 29): 0.0%
mice died ([2]; by the 4th day from anticancer agent administration, LPSea 1 mg/kg body weight/day): 1 out of 6
Survival rate (%) ([2]; day 3, 6 mice per group): 100%
Survival rate (%) ([2]; day 4): 83.33%
Survival rate (%) ([2]; day 8): 83.33%

O=c1[nH]cc(F)c(=O)[nH]1 [5-FU i.p., 5-fluorouracil]
Mice body weights after anticancer agent administration (relative value in % with body weights for saline i.p. being 100) ([3]; 0 day, 5-fluorouracil 360 mg/kg i.p.): 102.0 ± 2.4%
weight loss in comparison to the physiological saline administration group ([3]; 3rd day from anticancer agent administration, 5-fluorouracil 360 mg/kg i.p., Tukey's multiple comparison test): significant weight loss
body weight, comparison of 5-FU i.p. and 5-FU i.p.+LPS groups ([3]; 6th day, Tukey's multiple comparison test P<0.05): significantly low
Mice body weights after anticancer agent administration (relative value in % with body weights for saline i.p. being 100) ([3]; 3 day, 5-fluorouracil 360 mg/kg i.p.): 91.8 ± 4.1 %
Mice body weights after anticancer agent administration (relative value in % with body weights for saline i.p. being 100) ([3]; 6 day, 5-fluorouracil 360 mg/kg i.p.): 94.5 ± 2.6^ %

N.N.[Cl][Pt][Cl] [CDDP i.p., Cisplatin]
mice survived ([4]; 14th day, LPSp 1 mg/kg body weight/day, Kaplan-Meier test P<0.05): 1 out of 6
mice died ([4]; by the 6th day from anticancer agent administration, LPSp 1 mg/kg body weight/day): 5 out of 6
Survival rate (%) ([4]; day 5, 6 mice per group): 50%
Survival rate (%) ([4]; day 6): 16.7%
Survival rate (%) ([4]; day 7): 16.7%
Survival rate (%) ([4]; day 14): 16.7%

O=P1(N(CCCl)CCCl)NCCCO1 (stereo not shown) [CY i.p., Cyclophosphamide]
weight loss in comparison to the physiological saline administration group [5]: significant weight loss
